According to patent EP4501917A1, “3,4-DIHYDROQUINOXALINE-2-CARBOXIMIDE DERIVATIVE COMPOUND AND PHARMACEUTICAL COMPOSITION COMPRISING SAME FOR PREVENTING OR TREATING CANCER DISEASE” (Daegu-Gyeongbuk Medical Innovation Foundation, priority 2022, dated 2023):

Legend:
[1] = target: T1, HDAC8 (Homo sapiens, UniProt Q9BY41); test: HDAC8 inhibitory activity analysis (in vitro), RFU analysis, HDAC Fluorogenic assay kit; assay type: biochemical; details: for RFU (%): compound final concentration 10 µM, HDAC substrate 2A 20 µM, positive control (1% DMSO) set to 100, lower = more inhibition; for inhibitory activity against HDAC8: result in words, summary of Table 2, 10 µM
T1 construct: purchased BPS bioscience
T1 sequence (Q9BY41 1-377): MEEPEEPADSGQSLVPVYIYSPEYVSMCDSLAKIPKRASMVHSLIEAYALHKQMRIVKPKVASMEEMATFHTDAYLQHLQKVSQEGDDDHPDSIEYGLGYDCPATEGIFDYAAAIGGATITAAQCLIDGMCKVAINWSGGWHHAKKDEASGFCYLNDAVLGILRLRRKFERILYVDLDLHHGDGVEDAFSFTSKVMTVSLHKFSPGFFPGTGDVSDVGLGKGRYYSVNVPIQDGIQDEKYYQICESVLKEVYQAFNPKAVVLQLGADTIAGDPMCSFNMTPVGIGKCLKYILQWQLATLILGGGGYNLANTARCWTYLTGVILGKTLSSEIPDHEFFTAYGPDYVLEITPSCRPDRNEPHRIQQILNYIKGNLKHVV
Method: The compound of the Example was diluted to 1 mM (1% DMSO concentration) using DMSO to obtain a final concentration of 10 µM, and prepared by diluting 1/10 with assay buffer. In a 96-well black round-bottom plate, 5 µL of the diluted compound of the Example, 5 µL of the diluted HDAC substrate 2A, 5 µL of BSA (1 mg/mL), 5 µL of the HDAC8 enzyme diluted to an appropriate concentration, and 30 µL of assay buffer were added, and the enzyme reaction was performed at 37°C for 30 minutes. […] Afterwards, 50 µL of 2X HDAC developer was added to each well. After reacting for 15 minutes at room temperature, the fluorescence values at excitation wavelengths of 350-380 nm and emission wavelengths of 440-460 nm were measured using a microplate reader (Synergy Neo).

[2] = system: PC-3 prostate cancer cells; test: Prostate cancer cell growth inhibition, CCK-8 assay; assay type: cell-based, human; details: PC-3 cells, FIG. 1, result in words
Method: PC-3, a human-derived prostate cancer cell line, was cultured with RPMI1640 (10% fetal bovine serum, 1% Penicillin Streptomycin) culture medium at 37°C, 5% CO2 condition. All cells in the experiment were subcultured when they reached a confluency of approximately 80% to 90%, and only cells that had not passed 20 passages were used.
After culturing, 10 µL CCK-8 reagent was added and the absorbance was measured after 1 hour. The absorbance was measured at 450 nm using a microplate reader [BMG Labtech (Offenburg, Germany)].

[3] = system: Liver cancer cells Huh-7; test: Liver cancer cell growth inhibition, CellTiter-Glo Luminescent Cell Viability Assay; assay type: cell-based; details: Huh-7 cells, various concentrations, day 1, FIG. 6; result in words
Method: In addition, an analysis of liver cancer growth inhibitory activity was performed. Liver cancer cells Huh-7 cells were dispensed in a 96-well plate at 1 × 10^4 cells/ml, and after 20 hours, PCI34051, Example 27, and Example 35 were added at various concentrations, and cultured for 24 and 48 hours at 37°C in a 5% CO2 atmosphere. After culturing, 100 µl CellTiter-Glo Luminescent Cell Viability Assay reagent was added and the luminescence signal was measured after 0.5-1 hour. The luminescence signal was measured using IVIS [PerkinElmer, (Waltham, USA)].

SMILES | RFU (%) [1] | inhibitory activity against HDAC8 [1] | further results
Cc1cc2nc(C(=O)NCCc3ccc(Cl)cc3Cl)c(=O)n(C[C@H](O)[C@H](O)[C@H](O)CO)c2cc1C [Example 9, N-(2,4-dichlorophenethyl)-6,7-dimethyl-3-oxo-4-((2S,3S,4R)-2,3,4,5-tetrahydroxypentyl)-3,4-dihydroquinoxaline-2-carboxamide] | 66.28% |  | 
Cc1cc2nc(C(=O)Nc3cc(-c4ccc(Br)cc4)no3)c(=O)n(C[C@H](O)[C@H](O)[C@H](O)CO)c2cc1C [Example 10, N-(3-(4-bromophenyl)isoxazol-5-yl)-6,7-dimethyl-3-oxo-4-((2S,3S,4R)-2,3,4,5-tetrahydroxypentyl)-3,4-dihydroquinoxaline-2-carboxamide] | 16.61% | inhibitory activity similar to TSA or SAHA | 
Cc1cc2nc(C(=O)Nc3cc(-c4ccc(Br)cc4)n[nH]3)c(=O)n(C[C@H](O)[C@H](O)[C@H](O)CO)c2cc1C [Example 12, N-(3-(4-bromophenyl)-1H-pyrazol-5-yl)-6,7-dimethyl-3-oxo-4-((2S,3S,4R)-2,3,4,5-tetrahydroxypentyl)-3,4-dihydroquinoxaline-2-carboxamide] | 58.97% |  | 
Cc1cc2nc(C(=O)NC3CCC(C(=O)NO)C3)c(=O)n(C[C@H](O)[C@H](O)[C@H](O)CO)c2cc1C (stereo partly drawn) [Example 52, N-(3-(hydroxycarbamoyl)cyclopentyl)-6,7-dimethyl-3-oxo-4-((2S,3S,4R)-2,3,4,5-tetrahydroxypentyl)-3,4-dihydroquinoxaline-2-carboxamide] | 41.96% |  | 
Cc1cc2nc(C(=O)NCc3ccc4[nH]cnc4c3)c(=O)n(C[C@H](O)[C@H](O)[C@H](O)CO)c2cc1C [Example 34, N-((1H-benzo[d]imidazol-5-yl)methyl)-6,7-dimethyl-3-oxo-4-((2S,3S,4R)-2,3,4,5-tetrahydroxypentyl)-3,4-dihydroquinoxaline-2-carboxamide] | 34.05% | inhibitory activity similar to TSA or SAHA | 
Cc1cc2nc(C(=O)NCc3ccc(F)cc3)c(=O)n(C[C@H](O)[C@H](O)[C@H](O)CO)c2cc1C [Example 4, N-(4-fluorobenzyl)-6,7-dimethyl-3-oxo-4-((2S,3S,4R)-2,3,4,5-tetrahydroxypentyl)-3,4-dihydroquinoxaline-2-carboxamide] | 85.71% |  | 
Cc1cc2nc(C(=O)Nc3cc(C(=O)NO)ccc3C)c(=O)n(C[C@H](O)[C@H](O)[C@H](O)CO)c2cc1C [Example 51, N-(5-(hydroxycarbamoyl)-2-methylphenyl)-6,7-dimethyl-3-oxo-4-((2S,3S,4R)-2,3,4,5-tetrahydroxypentyl)-3,4-dihydroquinoxaline-2-carboxamide] | 5.81% | inhibitory activity similar to TSA or SAHA | 
Cc1cc2nc(C(=O)Nc3nnc(-c4ccc(Br)cc4)s3)c(=O)n(C[C@H](O)[C@H](O)[C@H](O)CO)c2cc1C [Example 11, N-(5-(4-bromophenyl)-1,3,4-thiadiazol-2-yl)-6,7-dimethyl-3-oxo-4-((2S,3S,4R)-2,3,4,5-tetrahydroxypentyl)-3,4-dihydroquinoxaline-2-carboxamide] | 63.24% |  | 
Cc1cc2nc(C(=O)NCc3ccc(C(=O)NO)cc3)c(=O)n(C[C@H](O)[C@H](O)[C@H](O)CO)c2cc1C [Example 47, N-(4-(hydroxycarbamoyl)benzyl)-6,7-dimethyl-3-oxo-4-((2S,3S,4R)-2,3,4,5-tetrahydroxypentyl)-3,4-dihydroquinoxaline-2-carboxamide] | 53.58% |  | 
Cc1cc2nc(C(=O)Nc3nc4c(F)cccc4[nH]3)c(=O)n(C[C@H](O)[C@H](O)[C@H](O)CO)c2cc1C [Example 35, N-(4-fluoro-1H-benzo[d]imidazol-2-yl)-6,7-dimethyl-3-oxo-4-((2S,3S,4R)-2,3,4,5-tetrahydroxypentyl)-3,4-dihydroquinoxaline-2-carboxamide] | 8.23% | inhibitory activity similar to TSA or SAHA | cell viability ([2]; after 24 hours): concentration-dependent inhibition of cancer cell viability; cell viability ([2]; after 48 hours): cell viability was restored; cell viability [3]: concentration-dependent inhibition of cancer cell viability
Cc1cc2nc(C(=O)NCc3ccc(Cl)c(Cl)c3)c(=O)n(C[C@H](O)[C@H](O)[C@H](O)CO)c2cc1C [Example 8, N-(3,4-dichlorobenzyl)-6,7-dimethyl-3-oxo-4-((2S,3S,4R)-2,3,4,5-tetrahydroxypentyl)-3,4-dihydroquinoxaline-2-carboxamide] | 85.37% |  | 
O=C(CCCCCCC(=O)Nc1ccccc1)NO [SAHA, suberoylanilide hydroxamic acid, reference compound] | 38.57% |  | 
Cc1cc2nc(C(=O)Nc3ccc(C(=O)NO)cc3)c(=O)n(C[C@H](O)[C@H](O)[C@H](O)CO)c2cc1C [Example 48, N-(4-(hydroxycarbamoyl)phenyl)-6,7-dimethyl-3-oxo-4-((2S,3S,4R)-2,3,4,5-tetrahydroxypentyl)-3,4-dihydroquinoxaline-2-carboxamide] | 10.48% | inhibitory activity similar to TSA or SAHA | 
Cc1cc2nc(C(=O)NCc3cccc(C(=O)NO)c3)c(=O)n(C[C@H](O)[C@H](O)[C@H](O)CO)c2cc1C [Example 50, N-(3-(hydroxycarbamoyl)benzyl)-6,7-dimethyl-3-oxo-4-((2S,3S,4R)-2,3,4,5-tetrahydroxypentyl)-3,4-dihydroquinoxaline-2-carboxamide] | 51.23% |  | 
Cc1cc2nc(C(=O)NCc3ccc(CC(=O)NO)cc3)c(=O)n(C[C@H](O)[C@H](O)[C@H](O)CO)c2cc1C [Example 49, N-(4-(2-(hydroxyamino)-2-oxoethyl)benzyl)-6,7-dimethyl-3-oxo-4-((2S,3S,4R)-2,3,4,5-tetrahydroxypentyl)-3,4-dihydroquinoxaline-2-carboxamide] | 35.15% | inhibitory activity similar to TSA or SAHA | 
COC(=O)C1CCC(NC(=O)c2nc3cc(C)c(C)cc3n(C[C@H](O)[C@H](O)[C@H](O)CO)c2=O)C1 (stereo partly drawn) [Example 33, methyl 3-(6,7-dimethyl-3-oxo-4-((2S,3S,4R)-2,3,4,5-tetrahydroxypentyl)-3,4-dihydroquinoxaline-2-carboxamido)cyclopentane-1-carboxylate] | 69.48% |  | 
Cc1cc2nc(C(=O)NCc3cc(Cl)cc(Cl)c3)c(=O)n(C[C@H](O)[C@H](O)[C@H](O)CO)c2cc1C [Example 7, N-(3,5-dichlorobenzyl)-6,7-dimethyl-3-oxo-4-((2S,3S,4R)-2,3,4,5-tetrahydroxypentyl)-3,4-dihydroquinoxaline-2-carboxamide] | 54.79% |  | 
Cc1cc2nc(C(=O)NCc3nc4ccccc4[nH]3)c(=O)n(C[C@H](O)[C@H](O)[C@H](O)CO)c2cc1C [Example 24, N-((1H-benzo[d]imidazol-2-yl)methyl)-6,7-dimethyl-3-oxo-4-((2S,3S,4R)-2,3,4,5-tetrahydroxypentyl)-3,4-dihydroquinoxaline-2-carboxamide] | 42.03% |  | 
COc1ccc(Cn2ccc3ccc(C(=O)NO)cc32)cc1 [PCI-34051, N-hydroxy-1-(4-methoxybenzyl)-1H-indole-6-carboxamide, reference compound] | 1.86% |  | cell viability [3]: concentration-dependent inhibition of cancer cell viability
